Results on ten molecules are retold here after ChEMBL document CHEMBL1144967, “Protective effect of imidazolopyrazinone antioxidants on ischemia/reperfusion injury” (2003).

By inhibition in vivo is commonly meant the relative decrease from the control value, in per cent. Read a low inhibition in vivo as little suppression.

The subject of assay [1] is Cricetinae gen. sp. Description: Ability to protect microvascular damages in ischemia/reperfusion (in vivo) was determined by measuring the inhibition of leaky sites, 30-min after the start of reperfusion at 30 mg/kg. The class given is functional, Cricetulus griseus. The conditions noted are these: 0.5 h.
The nature of assay [2]: Antioxidant efficiency of compounds was evaluated by the lag phase duration until onset of linoleate peroxidation induced by AAPH.

The molecule `Oc1c(-c2ccc(-c3ccccc3)cc2)nc2cnccn12` returned an inhibition in vivo at 30 mg/kg in assay [1] of 71%. Besides, in assay [2], the Lag time came to 77.5 min. As for `Oc1c(-c2ccc(F)cc2)nc2cnccn12`, the inhibition in vivo at 30 mg/kg in assay [1] was 37%. In assay [2], the Lag time worked out at 122 min.

As for `Cc1ccc(-c2nc3cnccn3c2O)cc1`, in assay [1], the inhibition in vivo at 30 mg/kg stood at 67%. Further, the Lag time in assay [2] was 78.7 min. `Cc1nc2cnccn2c1O` gave an inhibition in vivo at 30 mg/kg in assay [1] of 49%. This molecule also gave a Lag time in assay [2] of 134 min. Consider `Oc1c(-c2ccc(Cl)cc2)nc2cnccn12`, for which at 30 mg/kg the inhibition in vivo in assay [1] was 82%. The molecule further registered a Lag time in assay [2] of 111 min.

In turn, `Cc1c(C)c2c(c(C)c1O)CCC(C)(C(=O)O)O2` (stereo not drawn) yielded a Lag time in assay [2] of 128 min. Consider `COc1ccc(-c2nc3cnccn3c2O)cc1`, for which, in assay [1], the inhibition in vivo at 30 mg/kg amounted to 85%. This molecule also yielded a Lag time in assay [2] of 79.6 min.

`Oc1c(-c2ccccc2)nc2cnccn12`: the inhibition in vivo at 30 mg/kg in assay [1] was 79%. In assay [2], the Lag time was determined as 146 min. The matching figures for `Oc1c(-c2ccc3ccccc3c2)nc2cnccn12`: 57% and 74.9 min.

Consider `COc1cc(C(C)=O)ccc1O` [APOCYNIN], for which the inhibition in vivo at 30 mg/kg in assay [1] came to 59%.
